Test results as given in patent publication US20170173002A1, “Compositions and Methods for Treating an Infection” (CMPD LICENSING, LLC, priority 2015, published 2017).

Experiments:
[1] = system: Trichophyton mentagrophytes; test: Expected efficacy of antifungal agents; settings: expected efficacy against Trichophyton mentagrophytes
Aspergillus fumigatus = test: Expected efficacy of antifungal agents; settings: expected efficacy against Aspergillus fumigatus
Coccidioides immitis = settings: expected efficacy against Coccidioides immitis
Aspergillus flavus = test: Expected efficacy of antifungal agents; settings: expected efficacy against Aspergillus flavus
Trichophyton rubrum = test: Expected efficacy of antifungal agents; settings: expected efficacy against Trichophyton rubrum
Candida species = test: Expected efficacy of antifungal agents; settings: expected efficacy against Candida species
Cryptococcus neoformans = test: Expected efficacy of antifungal agents; settings: expected efficacy against Cryptococcus neoformans
Blastomyces dermatitidis = test: Expected efficacy of antifungal agents; settings: expected efficacy against Blastomyces dermatitidis
Sporothrix schenckii = test: Expected efficacy of antifungal agents; settings: expected efficacy against Sporothrix schenckii
Histoplasma duboisii = settings: expected efficacy against Histoplasma duboisii
[2] = system: Paracoccidioides brasiliensis; test: Expected efficacy of antifungal agents; settings: expected efficacy against Paracoccidioides brasiliensis
Leishmania infantum = test: Expected efficacy of antifungal agents; settings: expected efficacy against Leishmania infantum
Histoplasma capsulatum = settings: expected efficacy against Histoplasma capsulatum
Leishmania donovani = test: Expected efficacy of antifungal agents; settings: expected efficacy against Leishmania donovani
Aspergillus terreus = test: Expected efficacy of antifungal agents; settings: expected efficacy against Aspergillus terreus
Aspergillus niger = test: Expected efficacy of antifungal agents; settings: expected efficacy against Aspergillus niger
Scedosporium apiospermum = test: Expected efficacy of antifungal agents; settings: expected efficacy against Scedosporium apiospermum
Fusarium species = test: Expected efficacy of antifungal agents; settings: expected efficacy against Fusarium species

Measured: Efficacy

CCC(C)n1ncn(-c2ccc(N3CCN(c4ccc(OC[C@H]5CO[C@](Cn6cncn6)(c6ccc(Cl)cc6Cl)O5)cc4)CC3)cc2)c1=O (mixture of isomers) [Itraconazole]
not listed: Leishmania infantum | Histoplasma capsulatum | Leishmania donovani | Aspergillus terreus | Aspergillus niger | Scedosporium apiospermum | Fusarium species
yes: all other assays above

C[C@@H]1[C@H](O)[C@@H](C)/C=C/C=C/C=C/C=C/C=C/C=C/C=C/[C@H](O[C@@H]2O[C@H](C)[C@@H](O)[C@H](N)[C@@H]2O)C[C@@H]2O[C@](O)(C[C@@H](O)C[C@@H](O)[C@H](O)CC[C@@H](O)C[C@@H](O)CC(=O)O[C@H]1C)C[C@H](O)[C@H]2C(=O)O [Amphotericin, amphotericin b]
not listed: [1] | Trichophyton rubrum | Sporothrix schenckii | Histoplasma duboisii | Scedosporium apiospermum | Fusarium species
yes: all other assays above

C[C@@H](c1ncncc1F)[C@](O)(Cn1cncn1)c1ccc(F)cc1F [Voriconazole, voriconazole]
yes: Aspergillus fumigatus | Aspergillus flavus | Aspergillus terreus | Scedosporium apiospermum | Aspergillus niger | Fusarium species | Candida species
